Numbered stars: 1 amine (or outer) side, 2 acyl side, 3 side chain; on linkers, the order of the positions; unused ones are H or OH. Bridge positions count the residues as written; N and C are the ends. Peptide text beside a SMILES is read from it. I, II: the chains in the order shown. X1 = C[C@@H](CNC(=O)N[C@@H](C)CNC(=O)[*:2])NC(=O)NC[C@H](C)N[*:1]; X7 = C[C@@H](CNC(=O)N[C@@H](C)CNC(=O)[*:1])NC(=O)NC[C@H](C)N[*:2]; X6 = CC(CNC(=O)NC(C)CNC(=O)[*:1])NC(=O)NCC(C)N[*:2]
Target: T1, mouse GLP-1 receptor endogenously expressed in βTC6 cells (Mus musculus, UniProt O35659)
T1 construct: host or cells: βTC6 cells
T1 sequence (O35659 22-463): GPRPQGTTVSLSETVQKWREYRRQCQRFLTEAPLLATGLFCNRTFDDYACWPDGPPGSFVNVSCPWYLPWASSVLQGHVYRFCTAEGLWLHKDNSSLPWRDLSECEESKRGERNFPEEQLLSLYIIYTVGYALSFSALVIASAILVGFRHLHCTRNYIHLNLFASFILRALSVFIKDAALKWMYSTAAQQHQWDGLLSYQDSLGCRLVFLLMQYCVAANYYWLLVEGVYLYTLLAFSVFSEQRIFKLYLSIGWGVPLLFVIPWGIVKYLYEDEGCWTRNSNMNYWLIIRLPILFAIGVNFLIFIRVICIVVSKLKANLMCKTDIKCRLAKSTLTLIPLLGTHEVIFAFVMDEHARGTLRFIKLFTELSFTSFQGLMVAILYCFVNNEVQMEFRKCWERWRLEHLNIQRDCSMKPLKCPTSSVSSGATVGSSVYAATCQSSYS
Assay: cAMP production functional assay (HTRF), agonist activity at GLP-1R
Assay type: cell-based
Conditions: cAMP production; Table 1
Description: The agonistic activity of these hybrids were obtained by functional assays using cells expressing the […] and by measuring the receptor-mediated cAMP produced (see supporting information).
In vitro pharmacology (EC50). […] Following incubation, the cells were lysed and the fluorescence acceptor (D2-labeled cAMP) and fluorescence donor (anti-cAMP antibody labeled with europium cryptate) were added.

Row | SMILES | Potency (%), percentage of potency compare to GLP-1-G^2 [%]
1 | CC[C@H](C)[C@H](NC(=O)[C@H](Cc1ccccc1)NC(=O)[C@H](CCC(=O)O)NC(=O)NC[C@H](C)NC(=O)NC[C@H](C)NC(=O)NC[C@H](C)NC(=O)CNC(=O)[C@H](CCC(=O)O)NC(=O)[C@H](CC(C)C)NC(=O)[C@H](Cc1ccc(O)cc1)NC(=O)[C@H](CO)NC(=O)[C@H](CO)NC(=O)[C@@H](NC(=O)[C@H](CC(=O)O)NC(=O)[C@H](CO)NC(=O)[C@@H](NC(=O)[C@H](Cc1ccccc1)NC(=O)[C@@H](NC(=O)CNC(=O)[C@H](CCC(=O)O)NC(=O)CNC(=O)[C@@H](N)Cc1c[nH]cn1)[C@@H](C)O)[C@@H](C)O)C(C)C)C(=O)N[C@@H](C)C(=O)N[C@@H](Cc1c[nH]c2ccccc12)C(=O)N[C@@H](CC(C)C)C(=O)N[C@H](C(=O)N[C@@H](CCCCN)C(=O)NCC(=O)N[C@@H](CCCNC(=N)N)C(=O)NCC(N)=O)C(C)C [Compound 13, GG2[A^UA^UA^U]^17-20] | 0.01
2 | CC[C@H](C)[C@H](NC(=O)[C@H](Cc1ccccc1)NC(=O)[C@H](CCC(=O)O)NC(=O)[C@H](CCCCN)NC(=O)NC[C@H](C)NC(=O)NC[C@H](C)NC(=O)NC[C@H](C)NC(=O)[C@H](CCC(=O)O)NC(=O)[C@H](CC(C)C)NC(=O)[C@H](Cc1ccc(O)cc1)NC(=O)[C@H](CO)NC(=O)[C@H](CO)NC(=O)[C@@H](NC(=O)[C@H](CC(=O)O)NC(=O)[C@H](CO)NC(=O)[C@@H](NC(=O)[C@H](Cc1ccccc1)NC(=O)[C@@H](NC(=O)CNC(=O)[C@H](CCC(=O)O)NC(=O)CNC(=O)[C@@H](N)Cc1c[nH]cn1)[C@@H](C)O)[C@@H](C)O)C(C)C)C(=O)N[C@@H](C)C(=O)N[C@@H](Cc1c[nH]c2ccccc12)C(=O)N[C@@H](CC(C)C)C(=O)N[C@H](C(=O)N[C@@H](CCCCN)C(=O)NCC(=O)N[C@@H](CCCNC(=N)N)C(=O)NCC(N)=O)C(C)C [Compound 12, GG2[A^UA^UA^U]^16-19] | 0.1
3 | CC[C@H](C)[C@H](NC(=O)[C@H](Cc1ccccc1)NC(=O)[C@H](CCC(=O)O)NC(=O)[C@H](CCCCN)NC(=O)[C@H](C)NC(=O)[C@H](C)NC(=O)[C@H](CCC(N)=O)NC(=O)CNC(=O)[C@H](CCC(=O)O)NC(=O)[C@H](CC(C)C)NC(=O)NC[C@H](C)NC(=O)NC[C@H](C)NC(=O)NC[C@H](C)NC(=O)[C@H](CC(=O)O)NC(=O)[C@H](CO)NC(=O)[C@@H](NC(=O)[C@H](Cc1ccccc1)NC(=O)[C@@H](NC(=O)CNC(=O)[C@H](CCC(=O)O)NC(=O)CNC(=O)[C@@H](N)Cc1c[nH]cn1)[C@@H](C)O)[C@@H](C)O)C(=O)N[C@@H](C)C(=O)N[C@@H](Cc1c[nH]c2ccccc12)C(=O)N[C@@H](CC(C)C)C(=O)N[C@H](C(=O)N[C@@H](CCCCN)C(=O)NCC(=O)N[C@@H](CCCNC(=N)N)C(=O)NCC(N)=O)C(C)C [Compound 3, GG2[A^UA^UA^U]^10-13] | 0.04
4 | CC[C@H](C)[C@H](NC(=O)[C@H](Cc1ccccc1)NC(=O)[C@H](CCC(=O)O)NC(=O)[C@H](CCCCN)NC(=O)[C@H](C)NC(=O)NC[C@H](C)NC(=O)NC[C@H](C)NC(=O)NC[C@H](C)NC(=O)[C@H](CC(C)C)NC(=O)[C@H](Cc1ccc(O)cc1)NC(=O)[C@H](CO)NC(=O)[C@H](CO)NC(=O)[C@@H](NC(=O)[C@H](CC(=O)O)NC(=O)[C@H](CO)NC(=O)[C@@H](NC(=O)[C@H](Cc1ccccc1)NC(=O)[C@@H](NC(=O)CNC(=O)[C@H](CCC(=O)O)NC(=O)CNC(=O)[C@@H](N)Cc1c[nH]cn1)[C@@H](C)O)[C@@H](C)O)C(C)C)C(=O)N[C@@H](C)C(=O)N[C@@H](Cc1c[nH]c2ccccc12)C(=O)N[C@@H](CC(C)C)C(=O)N[C@H](C(=O)N[C@@H](CCCCN)C(=O)NCC(=O)N[C@@H](CCCNC(=N)N)C(=O)NCC(N)=O)C(C)C [Compound 10, GG2[A^UA^UA^U]^15-18] (I: H-HGEGTFTSDVSSYL / II: AKEFIAWLVKGRG-NH2; linker I:C-II:N via X1) | 0.2
5 | CC[C@H](C)[C@H](NC(=O)[C@H](Cc1ccccc1)NC(=O)[C@H](CCC(=O)O)NC(=O)[C@H](CCCCN)NC(=O)[C@H](C)NC(=O)[C@H](C)NC(=O)[C@H](CCC(N)=O)NC(=O)CNC(=O)NCC(C)NC(=O)NCC(C)NC(=O)NCC(C)NC(=O)[C@H](CO)NC(=O)[C@@H](NC(=O)[C@H](CC(=O)O)NC(=O)[C@H](CO)NC(=O)[C@@H](NC(=O)[C@H](Cc1ccccc1)NC(=O)[C@@H](NC(=O)CNC(=O)[C@H](CCC(=O)O)NC(=O)CNC(=O)[C@@H](N)Cc1c[nH]cn1)[C@@H](C)O)[C@@H](C)O)C(C)C)C(=O)N[C@@H](C)C(=O)N[C@@H](Cc1c[nH]c2ccccc12)C(=O)N[C@@H](CC(C)C)C(=O)N[C@H](C(=O)N[C@@H](CCCCN)C(=O)NCC(=O)N[C@@H](CCCNC(=N)N)C(=O)NCC(N)=O)C(C)C (stereo partly drawn) [Compound 6, GG2[A^UA^UA^U]^12-15] (I: GQAAKEFIAWLVKGRG-NH2 / II: H-HGEGTFTSDVS; linker I:N-II:C via X6) | <0.01

Next, values leading:

Row | Potency (%), percentage of potency compare to GLP-1-G^2 [%] | SMILES
6 | 0.01 | CC(C)C[C@H](NC(=O)[C@H](Cc1ccc(O)cc1)NC(=O)[C@H](CO)NC(=O)[C@H](CO)NC(=O)[C@@H](NC(=O)[C@H](CC(=O)O)NC(=O)[C@H](CO)NC(=O)[C@@H](NC(=O)[C@H](Cc1ccccc1)NC(=O)[C@@H](NC(=O)CNC(=O)[C@H](CCC(=O)O)NC(=O)CNC(=O)[C@@H](N)Cc1c[nH]cn1)[C@@H](C)O)[C@@H](C)O)C(C)C)C(=O)N[C@@H](CCC(=O)O)C(=O)NCC(=O)N[C@@H](CCC(N)=O)C(=O)N[C@@H](C)C(=O)N[C@@H](C)C(=O)N[C@@H](CCCCN)C(=O)N[C@@H](CCC(=O)O)C(=O)N[C@@H](Cc1ccccc1)C(=O)N[C@@H](C)CNC(=O)N[C@@H](C)CNC(=O)N[C@@H](C)CNC(=O)N[C@H](C(=O)N[C@@H](CCCCN)C(=O)NCC(=O)N[C@@H](CCCNC(=N)N)C(=O)NCC(N)=O)C(C)C [Compound 17, GG2[A^UA^UA^U]^23-26]
7 | <0.01 | CC[C@H](C)[C@H](NC(=O)[C@H](Cc1ccccc1)NC(=O)[C@H](CCC(=O)O)NC(=O)[C@H](CCCCN)NC(=O)[C@H](C)NC(=O)[C@H](C)NC(=O)[C@H](CCC(N)=O)NC(=O)CNC(=O)[C@H](CCC(=O)O)NC(=O)[C@H](CC(C)C)NC(=O)[C@H](Cc1ccc(O)cc1)NC(=O)[C@H](CO)NC(=O)[C@H](CO)NC(=O)[C@@H](NC(=O)[C@H](CC(=O)O)NC(=O)[C@H](CO)NC(=O)[C@@H](NC(=O)[C@H](Cc1ccccc1)NC(=O)[C@@H](NC(=O)CNC(=O)[C@H](CCC(=O)O)NC(=O)CNC(=O)[C@@H](N)Cc1c[nH]cn1)[C@@H](C)O)[C@@H](C)O)C(C)C)C(=O)NC(C)CNC(=O)NC(C)CNC(=O)NC(C)CNC(=O)N[C@@H](CCCCN)C(=O)NCC(=O)N[C@@H](CCCNC(=N)N)C(=O)NCC(N)=O (stereo partly drawn) [Compound 18, GG2[A^UA^UA^U]^24-27]
8 | <0.01 | CC[C@H](C)[C@H](NC(=O)[C@H](Cc1ccccc1)NC(=O)[C@H](CCC(=O)O)NC(=O)[C@H](CCCCN)NC(=O)[C@H](C)NC(=O)[C@H](C)NC(=O)[C@H](CCC(N)=O)NC(=O)NCC(C)NC(=O)NCC(C)NC(=O)NCC(C)NC(=O)[C@H](CO)NC(=O)[C@H](CO)NC(=O)[C@@H](NC(=O)[C@H](CC(=O)O)NC(=O)[C@H](CO)NC(=O)[C@@H](NC(=O)[C@H](Cc1ccccc1)NC(=O)[C@@H](NC(=O)CNC(=O)[C@H](CCC(=O)O)NC(=O)CNC(=O)[C@@H](N)Cc1c[nH]cn1)[C@@H](C)O)[C@@H](C)O)C(C)C)C(=O)N[C@@H](C)C(=O)N[C@@H](Cc1c[nH]c2ccccc12)C(=O)N[C@@H](CC(C)C)C(=O)N[C@H](C(=O)N[C@@H](CCCCN)C(=O)NCC(=O)N[C@@H](CCCNC(=N)N)C(=O)NCC(N)=O)C(C)C (stereo partly drawn) [Compound 7, GG2[A^UA^UA^U]^13-16] (I: QAAKEFIAWLVKGRG-NH2 / II: H-HGEGTFTSDVSS; linker I:N-II:C via X6)
9 | 0.2 | CC[C@H](C)[C@H](NC(=O)[C@H](Cc1ccccc1)NC(=O)[C@H](CCC(=O)O)NC(=O)[C@H](CCCCN)NC(=O)[C@H](C)NC(=O)[C@H](C)NC(=O)[C@H](CCC(N)=O)NC(=O)CNC(=O)[C@H](CCC(=O)O)NC(=O)NC[C@H](C)NC(=O)NC[C@H](C)NC(=O)NC[C@H](C)NC(=O)[C@@H](NC(=O)[C@H](CC(=O)O)NC(=O)[C@H](CO)NC(=O)[C@@H](NC(=O)[C@H](Cc1ccccc1)NC(=O)[C@@H](NC(=O)CNC(=O)[C@H](CCC(=O)O)NC(=O)CNC(=O)[C@@H](N)Cc1c[nH]cn1)[C@@H](C)O)[C@@H](C)O)C(C)C)C(=O)N[C@@H](C)C(=O)N[C@@H](Cc1c[nH]c2ccccc12)C(=O)N[C@@H](CC(C)C)C(=O)N[C@H](C(=O)N[C@@H](CCCCN)C(=O)NCC(=O)N[C@@H](CCCNC(=N)N)C(=O)NCC(N)=O)C(C)C [Compound 4, GG2[A^UA^UA^U]^11-14] (I: EGQAAKEFIAWLVKGRG-NH2 / II: H-HGEGTFTSDV; linker I:N-II:C via X7)

— patent US11285219B2, “Peptide-oligourea hybrid compounds” (UREKA SARL, priority 2019, dated 2022)
